According to paper PMC2941486 (Journal of Biomedical Science, 2010):
Marks after values point to notes of the source that are not given here. Square brackets hold non-standard residues; d marks the D form. Peptide text beside a SMILES is read from it. Dopa = N[C@@H](Cc1ccc(O)c(O)c1)C(=O)O; dPhg = N[C@@H](C(=O)O)c1ccccc1

Tests used:
[1] = biological target: T1, intestinal peptide transporter I (PepT1) (Rattus norvegicus, UniProt P51574); assay: BBMV uptake of d-phenylglycine-l-dopa with or without competitors; type: in vitro ADME; details: pH 7.4, room temperature
T1 construct: brush-boarder membrane vesicle (BBMV) prepared from rat intestine; from tissue; host or cells: rat intestine, brush-border membrane vesicles made by magnesium precipitation
T1 sequence (P51574 1-710): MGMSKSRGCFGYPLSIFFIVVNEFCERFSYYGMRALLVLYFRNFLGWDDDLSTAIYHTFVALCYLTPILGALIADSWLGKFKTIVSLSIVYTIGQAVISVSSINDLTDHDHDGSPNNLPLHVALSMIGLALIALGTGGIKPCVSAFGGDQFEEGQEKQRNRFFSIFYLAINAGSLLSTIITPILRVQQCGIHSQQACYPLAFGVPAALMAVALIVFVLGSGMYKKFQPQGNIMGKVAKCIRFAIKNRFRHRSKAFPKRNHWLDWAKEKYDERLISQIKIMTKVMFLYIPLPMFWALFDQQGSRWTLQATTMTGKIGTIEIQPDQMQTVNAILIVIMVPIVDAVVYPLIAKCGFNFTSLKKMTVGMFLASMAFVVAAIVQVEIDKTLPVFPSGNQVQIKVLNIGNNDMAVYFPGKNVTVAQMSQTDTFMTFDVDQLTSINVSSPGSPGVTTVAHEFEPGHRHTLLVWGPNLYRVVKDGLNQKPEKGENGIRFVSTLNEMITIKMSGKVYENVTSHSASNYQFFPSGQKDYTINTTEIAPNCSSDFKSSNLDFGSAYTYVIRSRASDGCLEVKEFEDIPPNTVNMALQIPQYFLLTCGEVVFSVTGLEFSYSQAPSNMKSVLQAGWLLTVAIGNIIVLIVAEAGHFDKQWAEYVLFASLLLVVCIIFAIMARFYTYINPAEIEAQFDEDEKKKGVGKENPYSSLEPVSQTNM

[2] = Stability in rat intestinal mucosa suspension; type: in vitro ADME; details: pH 6.5 isotonic buffer, 37°C
Procedure: Mucosa suspension was prepared from the intestine of male Wistar rats according to established method and was stored in an ice bath before use.
The stability of d-phenylglycine-l-dopa in the intestine was determined prior to the intestinal absorption studies. In order to simulate intestinal microclimate pH, the compound was incubated with the intestinal mucosal suspension in a pH 6.5 isotonic buffer solution. l-Gly-l-Phe comprising essential amino acids degraded rapidly with only 50% of recovery after 2 min of incubation. d-Phenylglycine-l-dopa, on the other hand, was very stable with almost 100% of recovery after 90 min of incubation (Figure 3).
Figure 3 Comparison of the stability of d-phenylglycine-l-dopa and l-Gly-l-Phe in rat intestinal mucosa suspension. Each point represents mean ± SE. of 3 experiments. A methanolic solution (100 μl) of the test compound (1 mg/ml) was diluted with an isotonic mannitol buffer solution (pH 6.5, 2.4 ml) as the stock solution. This stock solution (1 ml) was mixed with the freshly prepared mucosal suspension (1 ml). The mixture was incubated in a water bath at 37°C and subjected to sampling at intervals between zero to 90 min of incubation. Each sampled solution (200 μl) was denatured with 0.8 ml of MeOH and centrifuged at 6,600 g for 5 min. Each of the supernatant (20 - 100 μl) was subjected to HPLC assay.

[3] = In situ single-pass jejunal perfusion; type: in vivo, rat; details: for Blood concentration: steady-state plasma concentration after jejunal perfusion, l-dopa detected in only one of three rats
Procedure: Literature procedure was followed for the preparation of perfusion solutions and the jejunal segments. To maximize the absorption and to prevent the test compounds from being oxidized during perfusion, the experiments were performed at pH 6.0 with 0.02% (w/v) ascorbic acid added as antioxidant and nitrogen gas was bubbled through for 10 min before each experiment. Perfusion solution was pumped through the jejunal segment at a flow rate of 0.2 ml/min by a syringe pump (Stoelting, KD Scientific, U.S.A.). The jejunal segment was pre-washed with drug-free buffer for 10 min before the drug solution was pumped in. Outlet tubing samples were collected every 10 min for 6 collection periods after water and solute transport reached steady-state. The dimensionless membrane permeability Pm* [28] was measured as indications for the disappearance rate of test compound from the intestine. Plasma samples were withdrawn from carotid artery.
The absorption of d-phenylglycine-l-dopa and l-dopa was compared in rats by in situ single-pass jejunal perfusion experiments. Amidon's dimensionless cross-membrane permeability (Pm*) was determined as a parameter of intestinal absorption. The steady-state plasma concentration was also determined (Table 1).

[4] = Pharmacokinetics after i.v. and oral administration; type: in vivo, Wistar rats; details: for AUC / half-life / clearance / Vd / Tmax: Wistar, rat, plasma, 5.97 mg/kg; for clearance: read-out: Clp; for Vd: read-out: Vdss; for Fraction of absorption (BA): oral vs i.v., Equation 1, rats
Procedure: Rats were fasted for at least 18 h prior to drug administration. Anaesthesia was induced by i.p. injection of urethane (0.15 g/100 g body weight). The rats were put under a heating lamp to maintain body temperature.
The HPLC system used in the assay of biological samples consisted of an autosampler (AS950, Jasco, Tokyo, Japan), a Waters Model 600E solvent delivery pump (Millipore, Milford, MA, USA), a Model LC-4C electrochemical detector with a glassy-carbon electrode (Bioanalytical Systems, Inc., West Lafayette, IN, USA), and an integrator (Macintosh LC II with Macintegrator I). A Nucleosil® 10 SA cationic ion-exchange column (10 μm, 300 × 4.0 mm, Macherey-Nagel, Düren, Germany) with a mobile phase comprising NaCl (50 mM) and Na2-EDTA (1.0 mM) in 0.1 M ammonium phosphate buffer (pH 2.0) at a flow rate of 2.0 ml/min was used for the elution of the samples. […] HPLC assay methods were validated by determining the precision and accuracy of intra-day and inter-day analysis of serum standards over a period of 6 days. The coefficients of variation for inter- and intraday assays were less than 15% for both compounds (n = 6).
According to the literature, the area under the plasma concentration-time profile (AUC) was calculated by log-linear trapezoidal rule. Plasma concentration after i.v. administration of drugs were also fitted to a […] model using PCNONLIN and Akeike's Information Criteria, sum of squared residuals, residual plot and correlation coefficient were use for determination of the compartment model. The residual area after the last observed data point was calculated as Clast/k, where Clast is the last observed concentration, and k is the corresponding terminal rate constant. Terminal half-life (t1/2) was estimated compartment model-independently. The fraction of absorption was calculated according to Equation 1.
(1) BA=AUCoral⋅koral/doseoral/AUCiv⋅kiv/doseiv×100%
Blood samples were collected from the carotid artery at time intervals of from 1 to 180 min. Heparin sodium (25 I.U./ml in 0.3 ml of saline) was added to blood samples, and were then centrifuged at 6,600 g for 5 min. Plasma was stored at -78°C until being analyzed. A 200 μl of the plasma sample in a 10 ml test tube was mixed with 500 μl of 1.0 M Tris buffer (pH 8.6, adjusted by EDTA-2Na^+) and 10 μl of 3,4-dihydroxybenzylamine (DHBA, 2 μg/ml) was added as internal standard. Alumina 100 mg was then added and then shake for 15 sec and the supernatant was decanted. The alumina was washed four times with 5 ml of water, and the adsorbed compounds on the alumina was eluted with 200 μl of an acidic solution (0.9 ml of glacial acetic acid in 4.0 ml of 1.0 M phosphate buffer). A 30 μl of the eluent was then analyzed by HPLC.

striatal dopamine = assay: Brain microdialysis of striatal dopamine after i.v. injection; type: in vivo, Sprague-Dawley rats; details: after i.v. injection 50 mg/kg
Procedure: Single dose d-phenylglycine-l-dopa (50 mg/kg in 2.5 mL of normal saline) was administered i. v. via femoral vein to anesthetized male Sprague-Dawley rats (280 - 320 g). The body temperature of the rats was maintained at 37°C with a heating pad throughout the experiment. The rat was immobilized in a stereotaxic frame (David Kopf Instruments, Tujunga, CA, USA), the skull was surgically exposed, and a hole was drilled with a trephine into the skull based on stereotaxic coordinates. The brain microdialysis system consisted of a CMA/100 microinjection pump (CMA, Stockholm, Sweden) and a microdialysis probe. The dialysis probes (3 mm in length) were made of silica capillary in a concentric design with their tips covered by dialysis membrane (Spectrum, 150 μm outer diameter with a cut-off at nominal molecular mass of 13000, Laguna Hills, CA, USA). The probe was placed into right striatum (0.2 mm anterior to bregma and 3.2 mm lateral to midline) and perfused with Ringer's solution (147 mM Na+; 2.2 mM Ca++; 4 mM K+; pH 7.0) at a flow-rate of 1 μl min^-1. The position of each probe was verified at the end of experiments. The dialysates was collected at 10 min intervals and aliquots of 10 μl was assayed by microbore HPLC. […]

[5] = test system: 6-OHDA-treated unilateral striatal-lesioned rats; details: 10 mg/kg
[6] = oral, dose equivalent to 5.97 mg/kg l-dopa, rats

## CC1=C(C(=O)O)N2C(=O)[C@@H](NC(=O)[C@H](N)C3=CCC=CC3)[C@H]2SC1 [cephradine]
[1]
  Inhibition of BBMV uptake of d-phenylglycine-l-dopa by added competitor: significantly inhibited

## N[C@@H](C(=O)N[C@@H](Cc1ccc(O)c(O)c1)C(=O)O)c1ccccc1 [d-phenylglycine-l-dopa] (H-[dPhg]-[Dopa]-OH)
[2]; male, Wistar, rat, intestinal mucosa suspension, 90 min of incubation, read-out: Recovery after incubation with intestinal mucosal suspension
  recovery at 90 min, 0.02 mg/ml: ~100%
[3]; jejunal perfusion, rats
  Steady-state plasma concentration after perfusion, molar ratio, higher than that of l-dopa: 31.1 fold
[3]
  Blood concentration: 64.6 ± 5.40 µg/mL
[3]; steady-state, jejunal perfusion
  Molar ratio of blood concentration: 31.1
[4]; iv
  AUC: 1040 ng·h/mL
  half-life: 4.23 ± 1.22 h
  clearance: 180 ± 60 mL/min/kg
  Vd: 11 ± 5.08 L/kg
[4]; po
  AUC: 481 ng·h/mL
  Tmax: 0.638 h
  half-life: 2.38 ± 0.395 h
[4]; i.v., rats
  Systemic bioavailability (AUC), times lower than that of l-dopa: 7 times
[4]
  Fraction of absorption (BA): 27.58 ± 4.56%
[4]; [6]
  Clp: 290 ± 100 mL/min/kg
  Vdss: 35.7 ± 17.1 L/kg
[4]; rats, oral
  Fraction of oral absorption, fold higher than that of l-dopa: 31 fold
  Oral bioavailability, times higher than that of l-dopa: 31.7 times
Striatal dopamine
  Time at which striatal dopamine had not reached plateau: > 3.5 h
Striatal dopamine; anesthetized rats, dialysates at 10 min intervals
  Striatal dopamine level: increased gradually

## NCC(=O)N[C@@H](Cc1ccccc1)C(=O)O [l-Gly-l-Phe, reference compound] (H-Gly-Phe-OH)
[1]
  Inhibition of BBMV uptake of d-phenylglycine-l-dopa by added competitor: significantly inhibited
[2]; 2 min of incubation
  Recovery after incubation with intestinal mucosal suspension: 50%

## NCC(=O)N1CCC[C@H]1C(=O)O [l-Gly-l-Pro] (H-Gly-Pro-OH)
[1]
  Inhibition of BBMV uptake of d-phenylglycine-l-dopa by added competitor: significantly inhibited

## N[C@@H](Cc1ccccc1)C(=O)O [l-Phe]
[1]
  Inhibition of BBMV uptake of d-phenylglycine-l-dopa by added competitor: less inhibited

## N[C@@H](Cc1ccc(O)c(O)c1)C(=O)O [l-dopa, reference compound]
[3]
  Blood concentration: 1.24^a μg/ml
[4]; iv
  AUC: 7660 ng·h/mL
  half-life: 1.69 ± 0.462 h
  clearance: 20 ± 20 mL/min/kg
  Vd: 1.22 ± 0.89 L/kg
[4]; po
  AUC: 456 ng·h/mL
  Tmax: 0.417 h
  half-life: 3.08 ± 0.77 h
[4]
  Fraction of absorption (BA): 0.87 ± 0.24%
[4]; [6]
  Clp: 10 ± 0 mL/min/kg
[5]
  Reduction in rotation (mean ± SE %): 9.9 ± 1.4%
